# Values of other authors as cited in patent publication US20060083700A1, “Use of a novel phytonutrient rich bioactive concentrate (Ri-ActiveTM) for the prevention and treatment of cardiovascular disease, diabetes and other health disorders” (NaturRi LLC, priority 2004, published 2006).
# Test system: hypercholesterolemic subjects
# Conditions: 28 subjects, phases of 35 days
smiles,measurement,value
CC[C@H](C)C(=O)O[C@H]1C[C@@H](C)C=C2C=C[C@H](C)[C@H](CC[C@@H]3C[C@@H](O)CC(=O)O3)[C@H]21 [lovastatin],reduction of LDL-C,15%
same,reduction of serum total cholesterol,13%
